{"source": "patent US20260102472A1", "about": "“SEMAGLUTIDE IN MEDICAL THERAPY” (Novo Nordisk A/S, priority 2023, published 2026)", "system": "human subjects with established cardiovascular (CV) disease and obesity or overweight", "test": "Randomised, double-blind, placebo-controlled clinical trial of semaglutide in established cardiovascular disease and obesity or overweight (Example 3)", "type": "in vivo", "conditions": "for Heart failure leading to hospitalisation, Treatment Hazard ratio vs. placebo / Heart failure leading to hospitalisation, Events / Heart failure leading to hospitalisation, Events (%): baseline to end-of-trial (mean duration 39.8 months), 2.4 mg once weekly", "procedure": "A randomised, double-blind, international multicentre, placebo-controlled clinical trial with semaglutide was carried out with 17604 human subjects with established cardiovascular (CV) disease and obesity or overweight.\nKey inclusion criteria were at least 45 years of age, BMI of at least 27 kg/m^2 and established (CV) disease. Key exclusion criteria were type 1 diabetes or type 2 diabetes.\nSubjects were randomised in a 1:1 manner to receive either 2.4 mg semaglutide or placebo once weekly as add-on to standard of care. After randomization, a 16-week dose escalation period followed and then an event driven maintenance period with a mean (+SD) duration of exposure to semaglutide or placebo in the overall trial population of 34.2 (±13.7) months (33.3 (±14.4) months for semaglutide and 35.1 (±13.0) months for placebo). Subjects administered semaglutide initiated treatment with a once-weekly dose of 0.25 mg and followed a fixed dose escalation regimen, with dose increase every 4 weeks (through dosages of 0.5, 1.0, 1.7 mg once weekly), until the 2.4 mg once weekly maintenance dose was reached after 16 weeks.\nResults from the clinical trial are presented in Tables 19-20 based on 8803 and 8801 subjects randomised to semaglutide and placebo, respectively. Results from the chronic heart failure (HF) population of the clinical trial are presented in Tables 21-22 based on 2155 and 2131 chronic HF subjects randomised to semaglutide and placebo, respectively. Heart failure leading to hospitalisation was defined as hospital admission for at least 24 hours with a primary diagnosis of heart failure with documented new or worsening symptoms due to heart failure; and objective evidence of new or worsening heart failure (physical findings and/or laboratory evidence or invasive diagnostic evidence); and increased/initiated appropriate treatment. Estimated hazard ratios relative to placebo and two-sided p-values were obtained from a Cox proportional hazards model with randomised treatment as a fixed factor. CI: Confidence interval.", "key": {"[1]": {"conditions": "subjects with chronic HF only (2155)"}}, "data": [{"substance": "N-epsilon26-[2-(2-{2-[2-(2-{2-[(S)-4-Carboxy-4-(17-carboxyheptadecanoyl-amino) butyrylamino]ethoxy}ethoxy) acetylamino]ethoxy}ethoxy) acetyl] [Aib8,Arg34] GLP-1-(7-37) [Semaglutide]", "values": [{"measurement": "Heart failure leading to hospitalisation, Treatment Hazard ratio vs. placebo", "result": 0.79}, {"measurement": "Heart failure leading to hospitalisation, Events", "setting": "8803 subjects", "result": 97}, {"measurement": "Heart failure leading to hospitalisation, Events (%)", "setting": "8803 subjects", "result": 1.1, "unit": "%"}, {"measurement": "Heart failure leading to hospitalisation, Treatment Hazard ratio vs. placebo", "setting": "listed as semaglutide", "result": "achieved a reduction"}, {"measurement": "Reduction for CV death compared with placebo", "setting": "patients with chronic heart failure, statistically significant", "result": 24, "unit": "%"}, {"measurement": "Heart failure leading to hospitalisation, Events", "setting": "[1]", "result": 61}, {"measurement": "Heart failure leading to hospitalisation, Events (%)", "setting": "[1]", "result": 2.8, "unit": "%"}, {"measurement": "Heart failure leading to hospitalisation, Treatment Hazard ratio vs. placebo", "setting": "subjects with chronic HF only", "result": 0.86}, {"measurement": "Heart failure leading to hospitalisation, Treatment Hazard ratio vs. placebo", "setting": "subjects with chronic HF only, listed as semaglutide", "result": "achieved a reduction"}]}]}
